The record followed here is patent US8618163B2, “Derivatives of cycloalkyl- and cycloalkenyl-1,2-dicarboxylic acid compounds having formyl peptide receptor like-1 (FPRL-1) agonist or antagonist activity” (Allergan, Inc., priority 2010, dated 2013).

In one assay the target is T1, FPR1 (Homo sapiens, UniProt P21462).
T1 construct: expressed in transfected cells; host or cells: HEK-Gqi5 (HEK cells with chimeric G protein Gqi5)
T1 sequence (P21462 1-350): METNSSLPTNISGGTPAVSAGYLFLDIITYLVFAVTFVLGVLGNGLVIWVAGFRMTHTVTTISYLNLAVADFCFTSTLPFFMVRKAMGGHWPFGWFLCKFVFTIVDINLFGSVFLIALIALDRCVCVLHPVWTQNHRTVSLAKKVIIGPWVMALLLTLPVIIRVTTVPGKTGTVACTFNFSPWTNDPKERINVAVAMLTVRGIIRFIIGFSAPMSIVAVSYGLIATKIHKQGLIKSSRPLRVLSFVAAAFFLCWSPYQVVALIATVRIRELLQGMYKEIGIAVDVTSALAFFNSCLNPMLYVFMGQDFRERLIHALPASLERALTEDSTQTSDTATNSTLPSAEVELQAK
The assay can be described thus: compound-induced calcium activity on FLIPR Tetra in HEK-Gqi5 cells stable expressing FPR1. Type of assay: cell-based. Conditions: class symbol NA, read-out: FPR1 EC50 (NA = Not Active). How it is done:
(§1) CHO-Gal6 cells stably expressing FPRL1 were cultured in (F12, 10% FBS, 1% PSA, 400 μg/ml geneticin and 50 μg/ml hygromycin) and HEK-Gqi5 cells stable expressing FPR1 were cultured in (DMEM high glucose, 10% FBS, 1% PSA, 400 μg/ml geneticin and 50 μg/ml hygromycin). In general, the day before the experiment, 18,000 cells/well were plated in a 384-well clear bottom poly-d-lysine coated plate. The following day the screening compound-induced calcium activity was assayed on the FLIPR^Tetra. The drug plates were prepared in 384-well microplates using the EP3 and the MultiPROBE robotic liquid handling systems. Compounds were tested at concentrations ranging from 0.61 to 10,000 nM. Results are expressed as EC50 (nM) and efficacy values.

In the next assay the target is T2, FPRL1 (Homo sapiens, UniProt P25090).
T2 construct: expressed in transfected cells; host or cells: CHO-Gal6 (CHO cells with G alpha 16)
T2 sequence (P25090 1-351): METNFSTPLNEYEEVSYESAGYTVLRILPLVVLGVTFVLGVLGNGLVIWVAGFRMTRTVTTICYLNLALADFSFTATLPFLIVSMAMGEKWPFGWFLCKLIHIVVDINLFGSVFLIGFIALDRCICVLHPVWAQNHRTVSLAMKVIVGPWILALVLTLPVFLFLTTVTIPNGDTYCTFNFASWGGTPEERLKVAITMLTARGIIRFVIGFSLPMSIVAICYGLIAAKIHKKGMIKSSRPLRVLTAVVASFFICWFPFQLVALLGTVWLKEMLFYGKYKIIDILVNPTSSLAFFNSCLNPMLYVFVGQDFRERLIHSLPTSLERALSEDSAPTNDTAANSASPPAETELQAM
Description: compound-induced calcium activity on FLIPR Tetra in CHO-Gal6 cells stably expressing FPRL1. Type of assay: cell-based. Conditions: for FPRL1 (rel. eff.): relative efficacy. How it is done:
as §1

Where [1] appears, read: calcium, FLIPR Tetra, tested 0.61 to 10,000 nM, read-out: FPRL1 EC50.

Where two headings read alike, the source gives them in different places.

For `O=C(O)C1C(C(=O)Nc2ccc(-c3ccccc3)cc2)C2C=CC1C21CC1` (racemic) [Compound 26, (+/−)-(1R,4S,5R,6S)-5-([1,1′-Biphenyl]-4-ylcarbamoyl)spiro[bicyclo[2.2.1]hept[2]ene-7,1′-cyclopropane]-6-carboxylic Acid], the EC50 – broadly, the concentration giving half of the maximal effect – at FPR1 was over 10 µM; on FPRL1 (setting [1]) it was 2.36 µM. The “FPRL1 (rel. eff.)” value at FPRL1 (calcium, FLIPR Tetra) is 0.69.

As for `CCOC(=O)C1C(C(=O)Nc2ccc(I)cc2)C2C=CC1C21CC1` (racemic) [Compound 17, Ethyl(+/−)-(1S,4R,5S,6R)-6-(4-Iodophenylcarbamoyl)spiro[bicyclo[2.2.1]hept[2]ene-7,1′-cyclopropane]-5-carboxylate], the EC50 at FPR1 is over 10 µM; on FPRL1 (setting [1]), 0.243 µM. In addition, on FPRL1 (calcium, FLIPR Tetra), the “FPRL1 (rel. eff.)” value was 0.76.

For the compound `O=C(O)C1C(C(=O)Nc2ccc(O)cc2)C2C=CC1C21CC1` (racemic) [Compound 33, (+/−)-(1S,4R,5S,6R)-6-((4-Hydroxyphenyl)carbamoyl)spiro[bicyclo[2.2.1]hept[2]ene-7,1′-cyclopropane]-5-carboxylic Acid], the EC50 was over 10 µM at FPR1 and over 10 µM at FPRL1 (class symbol NA, read-out: FPRL1 EC50 (NA = Not Active)).

For `CNC(=O)[C@@H]1[C@H](C(=O)Nc2ccc(Br)cc2)[C@@H]2CC[C@H]1C21CC1` (racemic) [Compound 77, (+/−)-(1S,2R,3S,4R)—N^2-(4-Bromophenyl)-N^3-methylspiro[bicyclo[2.2.1]heptane-7,1′-cyclopropane]-2,3-dicarboxamide], the EC50 at FPR1 is over 10 µM; on FPRL1 (setting [1]) it was 0.0097 µM. Besides, the “FPRL1 (rel. eff.)” value at FPRL1 (calcium, FLIPR Tetra) was found to be 0.95.

With `O=C(O)[C@@H]1[C@H](C(=O)Nc2ccc3c(c2)oc2ccccc23)[C@@H]2CC[C@H]1C21CC1` (racemic) [Compound 31, (+/−)-(1S,4R,5S,6R)-6-(dibenzo[b,d]furan-3-ylcarbamoyl)spiro[bicyclo[2.2.1]-heptane-7,1′-cyclopropane]-5-carboxylic acid], the EC50 at FPR1 was over 10 µM; on FPRL1 (setting [1]), 2.26 µM. The “FPRL1 (rel. eff.)” value on FPRL1 (calcium, FLIPR Tetra) worked out at 0.9.

On to `CCc1ccc(NC(=O)C2C(C(N)=O)C3C=CC2C32CC2)cc1` (racemic) [Compound 66, (+/−)-(1R,4S,5R,6S)—N^5-(4-Ethylphenyl)spiro[bicyclo[2.2.1]hept[2]ene-7,1′-cyclopropane]-5,6-dicarboxamide], for which the EC50 at FPR1 is over 10 µM; on FPRL1 (setting [1]) it was 0.0508 µM. Also, at FPRL1 (calcium, FLIPR Tetra), the “FPRL1 (rel. eff.)” value is 0.79.

`O=C(O)C1C(C(=O)Nc2ccc(Br)cn2)C2C=CC1C21CC1` (racemic) [Compound 25, (+/−)-(1S,4R,5S,6R)-6-(5-Bromo-2-pyridylcarbamoyl)spiro[bicyclo[2.2.1]hept[2]ene-7,1′-cyclopropane]-5-carboxylic Acid]: the results for the EC50 on FPR1 and on FPRL1 (setting [1]) were over 10 µM and 0.149 µM, respectively. In addition, the “FPRL1 (rel. eff.)” value on FPRL1 (calcium, FLIPR Tetra) is recorded as 0.74.

Turning to `NC(=O)C1C(C(=O)Nc2ccc(I)cc2)C2C=CC1C21CC1` (racemic) [Compound 50, (+/−)-(1R,4S,5R,6S)—N-5-(4-Iodophenyl)spiro[bicyclo[2.2.1]hept[2]ene-7,1′-cyclopropane]-5,6-dicarboxamide], the figures for the EC50 on FPR1 and on FPRL1 (setting [1]) were over 10 µM and 0.0018 µM, respectively. For the same compound, the “FPRL1 (rel. eff.)” value on FPRL1 (calcium, FLIPR Tetra) worked out at 0.85.

On to `CCc1ccc(NC(=O)[C@H]2[C@@H](C(N)=O)[C@H]3CC[C@@H]2C32CC2)cc1` (racemic) [Compound 68, (+/−)-(1S,2R,3S,4R)—N^2-(4-Ethyl-phenyl)-spiro[bicyclo[2.2.1]heptane-7,1′-cyclopropane]-2,3-dicarboxamide], for which the values for the EC50 on FPR1 and on FPRL1 (setting [1]) were over 10 µM and 0.0381 µM, respectively. Also, the “FPRL1 (rel. eff.)” value at FPRL1 (calcium, FLIPR Tetra) amounted to 1.0.

For the compound `O=C(O)C1=C(C(=O)Nc2ccc(Br)cc2)C2C=CC1C21CC1` (racemic) [Compound 72, (+/−)-(1R,4S)-2-((4-Bromophenyl)carbamoyl)spiro[bicyclo[2.2.1]-hepta[2,5]diene-7,1′-cyclopropane]-3-carboxylic Acid], the results for the EC50 at FPR1 and at FPRL1 (setting [1]) were over 10 µM and 0.617 µM, respectively. In addition, the “FPRL1 (rel. eff.)” value at FPRL1 (calcium, FLIPR Tetra) was 0.92.
